Measured values as given in patent US5589506A, “Stilbene derivative and stilbene analog derivative, and use thereof” (Morinaga Milk Industry Co., Ltd., priority 1993, dated 1996).
Read-outs that look alike come from different tables or passages of the source.

Target: T1, 12-lipoxygenase (Rattus norvegicus, UniProt F1LQ70)
T1 construct: The pelleted platelets were rinsed twice with a washing buffer; from tissue; host or cells: platelets of Sprague Dawley male rat (sonicate, 100,000 x g supernatant)
T1 sequence (F1LQ70 1-663): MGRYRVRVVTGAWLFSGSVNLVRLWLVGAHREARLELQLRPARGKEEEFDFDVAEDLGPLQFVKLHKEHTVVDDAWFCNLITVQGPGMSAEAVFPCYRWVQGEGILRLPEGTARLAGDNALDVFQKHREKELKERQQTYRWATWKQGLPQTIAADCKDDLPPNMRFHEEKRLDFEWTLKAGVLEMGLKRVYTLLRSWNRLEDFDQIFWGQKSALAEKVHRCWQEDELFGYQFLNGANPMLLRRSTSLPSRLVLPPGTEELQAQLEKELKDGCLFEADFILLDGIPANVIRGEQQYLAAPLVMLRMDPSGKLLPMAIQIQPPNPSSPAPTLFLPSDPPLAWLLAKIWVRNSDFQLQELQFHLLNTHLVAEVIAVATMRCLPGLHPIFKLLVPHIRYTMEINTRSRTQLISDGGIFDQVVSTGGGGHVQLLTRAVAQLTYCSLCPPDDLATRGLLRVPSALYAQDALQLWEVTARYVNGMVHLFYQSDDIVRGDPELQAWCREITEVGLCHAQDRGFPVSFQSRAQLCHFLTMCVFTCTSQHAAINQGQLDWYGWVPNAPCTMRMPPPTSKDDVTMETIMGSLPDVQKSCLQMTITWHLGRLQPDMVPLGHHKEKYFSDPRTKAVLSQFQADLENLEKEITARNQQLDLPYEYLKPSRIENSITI
Assay: 12-lipoxygenase inhibition assay (rat platelet enzyme solution)
Assay type: biochemical, Sprague Dawley male rat
Settings: for 12-Lipoxygenase inhibition ratio (%) / inhibition at 10 µM: 10^-5 (mole concentration); for 12-Lipoxygenase inhibition ratio (%): 10 µM; for inhibition at 1 µM: 10^-6 (mole concentration); for inhibition at 1 µM / inhibition at 0.1 µM / inhibition at 10 µM: read-out: 12-Lipoxygenase inhibition ratio (%); for inhibition at 0.1 µM: 10^-7 (mole concentration)
Method: The test was performed to examine inhibitory effect of various compounds on the 12-lipoxyganase activity.
1) Preparation of Enzyme Solution
A Sprague Dawley male rat was anesthetized with ether and bled from abdominal aorta using a syringe filled with about one-tenth volume of 3.8% sodium citrate. Blood was centrifuged at 180×g for 15 minutes at room temperature to pellet sanguineous platelet blood plasma. The resultant supernatant was again centrifuged at 1800×g for 10 minutes at 4° C. The pelleted platelets were rinsed twice with a washing buffer (50 mM Tris-hydrochloric acid buffer containing 154 mM sodium chloride and 2 mM EDTA, pH: 7.4). The platelets were then suspended in one-twentieth volume of a resuspension buffer (50 mM Tris-hydrochloric acid buffer containing 154 mM sodium chloride and 5.5 mM glucose, pH: 7.4). The platelets were then sonicated at 4° C. and centrifuged at 100,000×g for 30 minutes to obtain a supernatant as a 12-lipoxgenaseenzyme solution.
2) Procedure for 12-lipoxgenase inhibition assay
The enzyme solution described above was diluted with the resuspension buffer above mentioned to prepare an assay solution so as to include about 2 mU/ml of 12-lipoxygenase. […] The resultant mixture was incubated at 37° C. for 5 minutes. Subsequently, 3 μl of a 2.5 mM arachidonic acid solution in ethanol was added to incubate with for another 5 minutes at 37° C., then the reaction was ceased by the addition of 600 μl of methanol. After being centrifuged at 10,000×g for 5 minutes, 12-hydroxyeicosatetraenoic acid recovered in the supernatant was separated with a reverse phase high-performance liquid chromatography equipped with a […] the activity of 12 lipoxygenase.
The enzyme solution was prepared according to the same manner as in Test Example 1.
It was prepared according to the same procedure as in Test Example 1.
Measurement was performed according to the same procedure as in Test Example 1.
The measurement was performed according to the same procedure as in Test Example 1.

[1] = Table 2, read-out: 12-Lipoxygenase IC50 values

Row | SMILES | 12-Lipoxygenase inhibition ratio (%) | inhibition at 1 µM | inhibition at 0.1 µM | inhibition at 10 µM | IC50 [1] | further results
1 | COc1cc(C=C(C#N)c2ccc(Cl)cc2)ccc1O [Comp. Ex. 4, reference compound] | 2% | 0% | 0% | – | – | –
2 | N#CC(=Cc1ccc(O)cc1)c1ccc(Cl)cc1 [Comp. Ex. 2, reference compound] | 10% | 2% | 5% | < 10% | – | –
3 | Oc1ccc(/C=C/c2ccccc2)cc1O [Comp. Ex. 5, reference compound] | – | – | – | – | 1200 nM | 12-lipoxygenase inhibitory effect (in words): remarkably poor compared with that of the compound (Example 1)
4 | N#CC(=Cc1cccc(O)c1)c1ccc(Cl)cc1 [Comp. Ex. 1, reference compound] | 7% | 1% | 0% | < 10% | – | –
5 | CCOC(=O)C(=Cc1ccc(O)c(O)c1)c1ccccc1 [Comp. Ex. 6, reference compound] | – | – | – | – | 160 nM | 12-lipoxygenase inhibitory effect (in words): remarkably poor compared with that of the compound (Example 1)
6 | N#CC(=Cc1ccc(O)c(O)c1)c1ccc(O)cc1 [Comp. Ex. 7, reference compound] | – | – | – | – | 230 nM | –
7 | N#CC(=Cc1ccc(C(=O)O)cc1)c1ccc(O)c(O)c1 [Comp. Ex. 9, reference compound] | – | – | – | – | 5000 nM | –
8 | COc1ccc(C(C#N)=Cc2ccc(O)c(O)c2)cc1 [Formula 55b, α-cyano-4-methoxy-3',4'-dihydroxystilbene] | – | – | – | – | – | IC50 (Table 12, deacylated compounds, read-out: 12-Lipoxygenase inhibitory effect of deacylated compounds (IC50 values)): 6 nM
9 | COc1ccc(C=C(C#N)c2ccc(Cl)cc2)cc1O [Comp. Ex. 3, reference compound] | 10% | 1% | 0% | < 10% | – | –
10 | N#CC(=Cc1ccc(O)c(O)c1)c1ccc(O)c(O)c1 [Comp. Ex. 8, reference compound] | – | – | – | – | 300 nM | –
